Results reported in PubChem BioAssay (NCI).
Several values for one entry are separate records, joined by “and”; a condition that tells them apart may be missing. Equal values may be shown once.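 Results reflect a 48-hour exposure of cells in 96-well plates to compound at five concentrations. GI50 marks 50% less growth. The concentration for full growth arrest is given as TGI.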

These molecules were tested on HOP-62 NSCLC (assay: NCI-60 cell line screen, 48 h).
`CN(C)S(=O)(=O)Nc1nnc(S(N)(=O)=O)s1` showed a TGI of over 100 µM.

Each molecule was assayed on SR leukemia (assay: NCI-60 cell line screen, 48 h).
In the case of `OCc1c[nH]c2ccccc12`, the GI50 is reported as 30.2 µM and the TGI is reported as 77.4 µM.
`CCN(CC)CCOc1ccc(/C(=C(\Cl)c2ccccc2)c2ccccc2)cc1` was tested, and the GI50 was 1.9 µM and 2.3 µM and the TGI was 9.16 µM and 8.36 µM.
`CCN1CCC(O)(C(C(=O)O)c2ccccc2)CC1` (stereo not given) gave a TGI of over 100 µM.
`CC1=CC(=Nc2ccc(N(CCCl)CCCl)cc2)C=C(C)C1=O` gave a GI50 of 0.288 µM and a TGI of over 33.9 µM.
`CN(C)S(=O)(=O)Nc1nnc(S(N)(=O)=O)s1` was tested, and the TGI was over 100 µM.

These molecules were tested on A498 renal (assay: NCI-60 cell line screen, 48 h).
`OCc1c[nH]c2ccccc12` showed a GI50 of 31.3 µM and a TGI of over 100 µM.
In the case of `CCN(CC)CCOc1ccc(/C(=C(\Cl)c2ccccc2)c2ccccc2)cc1`, the GI50 is reported as 6.96 µM and 2.32 µM and the TGI is reported as 13.7 µM and 10.1 µM.
`CCN1CCC(O)(C(C(=O)O)c2ccccc2)CC1` (stereo not given) was tested, and the TGI was over 100 µM.
Molecule `CC1=CC(=Nc2ccc(N(CCCl)CCCl)cc2)C=C(C)C1=O` has a GI50 of 1.68 µM and a TGI of 4.13 µM.
Work on `CN(C)S(=O)(=O)Nc1nnc(S(N)(=O)=O)s1` yielded a TGI of over 100 µM.

Each molecule was assayed on KM12 colon (assay: NCI-60 cell line screen, 48 h).
In the case of `OCc1c[nH]c2ccccc12`, the GI50 is reported as 16 µM and the TGI is reported as 37.2 µM.
With `CCN(CC)CCOc1ccc(/C(=C(\Cl)c2ccccc2)c2ccccc2)cc1` the GI50 was 2.1 µM and 1.87 µM and the TGI was 7.2 µM and 4.08 µM.
In the case of `CCN1CCC(O)(C(C(=O)O)c2ccccc2)CC1` (stereo not given), the TGI is reported as over 100 µM.
In the case of `CC1=CC(=Nc2ccc(N(CCCl)CCCl)cc2)C=C(C)C1=O`, the GI50 is reported as 2.64 µM and the TGI is reported as 11.3 µM.
`CN(C)S(=O)(=O)Nc1nnc(S(N)(=O)=O)s1` was tested, and the TGI was over 100 µM.

The molecules below were run on OVCAR-5 ovarian (assay: NCI-60 cell line screen, 48 h).
`OCc1c[nH]c2ccccc12` gave a GI50 of 20.8 µM and a TGI of 58.6 µM.
With `CCN(CC)CCOc1ccc(/C(=C(\Cl)c2ccccc2)c2ccccc2)cc1` the GI50 was 3.42 µM and 3.33 µM and the TGI was 9.95 µM and 15.2 µM.
Molecule `CCN1CCC(O)(C(C(=O)O)c2ccccc2)CC1` (stereo not given) has a TGI of over 100 µM.
With `CC1=CC(=Nc2ccc(N(CCCl)CCCl)cc2)C=C(C)C1=O` the GI50 was 2.72 µM and the TGI was 11.3 µM.
`CN(C)S(=O)(=O)Nc1nnc(S(N)(=O)=O)s1` showed a TGI of over 100 µM.

Each molecule was assayed on A549 NSCLC (assay: NCI-60 cell line screen, 48 h).
`OCc1c[nH]c2ccccc12` gave a GI50 of 20.8 µM and a TGI of 57.9 µM.
`CCN(CC)CCOc1ccc(/C(=C(\Cl)c2ccccc2)c2ccccc2)cc1` was tested, and the GI50 was 2.92 µM and 4.32 µM and the TGI was 9.57 µM and 15.3 µM.
`CCN1CCC(O)(C(C(=O)O)c2ccccc2)CC1` (stereo not given) gave a TGI of over 100 µM.
`CC1=CC(=Nc2ccc(N(CCCl)CCCl)cc2)C=C(C)C1=O` showed a GI50 of 1.61 µM and a TGI of 24 µM.
`CN(C)S(=O)(=O)Nc1nnc(S(N)(=O)=O)s1` showed a TGI of over 100 µM.

Each molecule was assayed on OVCAR-3 ovarian (assay: NCI-60 cell line screen, 48 h).
`OCc1c[nH]c2ccccc12` showed a GI50 of 20.3 µM and a TGI of 49.3 µM.
`CCN(CC)CCOc1ccc(/C(=C(\Cl)c2ccccc2)c2ccccc2)cc1` was tested, and the GI50 was 5.24 µM and 3.42 µM and the TGI was 11.4 µM and 15.7 µM.
In the case of `CCN1CCC(O)(C(C(=O)O)c2ccccc2)CC1` (stereo not given), the TGI is reported as over 100 µM.
`CC1=CC(=Nc2ccc(N(CCCl)CCCl)cc2)C=C(C)C1=O` was tested, and the GI50 was 1.05 µM and the TGI was 3.13 µM.
Molecule `CN(C)S(=O)(=O)Nc1nnc(S(N)(=O)=O)s1` has a TGI of over 100 µM.

These molecules were tested on HL-60(TB) leukemia (assay: NCI-60 cell line screen, 48 h).
Work on `OCc1c[nH]c2ccccc12` yielded a GI50 of 35.1 µM and a TGI of 77.3 µM.
With `CCN(CC)CCOc1ccc(/C(=C(\Cl)c2ccccc2)c2ccccc2)cc1` the GI50 was 2.1 µM and 3.13 µM and the TGI was 7.77 µM and 6.16 µM.
Molecule `CCN1CCC(O)(C(C(=O)O)c2ccccc2)CC1` (stereo not given) has a TGI of over 100 µM.
For `CC1=CC(=Nc2ccc(N(CCCl)CCCl)cc2)C=C(C)C1=O`, the GI50 was 0.309 µM and the TGI was 2.9 µM.
`CN(C)S(=O)(=O)Nc1nnc(S(N)(=O)=O)s1` showed a TGI of over 100 µM.

The molecules below were run on RXF 393 renal (assay: NCI-60 cell line screen, 48 h).
`OCc1c[nH]c2ccccc12` showed a GI50 of 18.2 µM and a TGI of 43.8 µM.
For `CCN(CC)CCOc1ccc(/C(=C(\Cl)c2ccccc2)c2ccccc2)cc1`, the GI50 was 0.955 µM and 1.49 µM and the TGI was 2.46 µM and 3.03 µM.
With `CCN1CCC(O)(C(C(=O)O)c2ccccc2)CC1` (stereo not given) the TGI was over 100 µM.
Molecule `CN(C)S(=O)(=O)Nc1nnc(S(N)(=O)=O)s1` has a TGI of over 100 µM.

What follows are molecules tested on HCT-15 colon (assay: NCI-60 cell line screen, 48 h).
With `OCc1c[nH]c2ccccc12` the GI50 was 20.3 µM and the TGI was 55.3 µM.
`CCN(CC)CCOc1ccc(/C(=C(\Cl)c2ccccc2)c2ccccc2)cc1` was tested, and the GI50 was 1.47 µM and 1.72 µM and the TGI was 5.01 µM and 7.38 µM.
Molecule `CCN1CCC(O)(C(C(=O)O)c2ccccc2)CC1` (stereo not given) has a TGI of over 100 µM.
In the case of `CC1=CC(=Nc2ccc(N(CCCl)CCCl)cc2)C=C(C)C1=O`, the GI50 is reported as 1.63 µM and the TGI is reported as 11 µM.
Molecule `CN(C)S(=O)(=O)Nc1nnc(S(N)(=O)=O)s1` has a TGI of over 100 µM.

The molecules below were run on HOP-92 NSCLC (assay: NCI-60 cell line screen, 48 h).
Molecule `OCc1c[nH]c2ccccc12` has a GI50 of 9.35 µM and a TGI of 63.5 µM.
Molecule `CCN(CC)CCOc1ccc(/C(=C(\Cl)c2ccccc2)c2ccccc2)cc1` has a GI50 of 1.58 µM and a TGI of 5.4 µM.
For `CC1=CC(=Nc2ccc(N(CCCl)CCCl)cc2)C=C(C)C1=O`, the GI50 was 0.392 µM and the TGI was 2.06 µM.
With `CN(C)S(=O)(=O)Nc1nnc(S(N)(=O)=O)s1` the TGI was over 100 µM.

The molecules below were run on SK-MEL-28 melanoma (assay: NCI-60 cell line screen, 48 h).
In the case of `OCc1c[nH]c2ccccc12`, the GI50 is reported as 23.5 µM and the TGI is reported as 50.1 µM.
With `CCN(CC)CCOc1ccc(/C(=C(\Cl)c2ccccc2)c2ccccc2)cc1` the GI50 was 1.07 µM and 1.79 µM and the TGI was 2.21 µM and 3.47 µM.
`CCN1CCC(O)(C(C(=O)O)c2ccccc2)CC1` (stereo not given) showed a TGI of over 100 µM.
For `CC1=CC(=Nc2ccc(N(CCCl)CCCl)cc2)C=C(C)C1=O`, the GI50 was 2.48 µM and the TGI was 10.1 µM.
With `CN(C)S(=O)(=O)Nc1nnc(S(N)(=O)=O)s1` the TGI was over 100 µM.

Each molecule was assayed on U251 CNS (assay: NCI-60 cell line screen, 48 h).
Molecule `OCc1c[nH]c2ccccc12` has a GI50 of 21.9 µM and a TGI of 62 µM.
With `CCN(CC)CCOc1ccc(/C(=C(\Cl)c2ccccc2)c2ccccc2)cc1` the GI50 was 1.72 µM and 1.53 µM and the TGI was 7.22 µM and 3.51 µM.
In the case of `CCN1CCC(O)(C(C(=O)O)c2ccccc2)CC1` (stereo not given), the TGI is reported as over 100 µM.
For `CC1=CC(=Nc2ccc(N(CCCl)CCCl)cc2)C=C(C)C1=O`, the GI50 was 1.02 µM and the TGI was 7.33 µM.
With `CN(C)S(=O)(=O)Nc1nnc(S(N)(=O)=O)s1` the TGI was over 100 µM.

Each molecule was assayed on SF-268 CNS (assay: NCI-60 cell line screen, 48 h).
For `OCc1c[nH]c2ccccc12`, the GI50 was 33.4 µM and the TGI was over 100 µM.
With `CCN(CC)CCOc1ccc(/C(=C(\Cl)c2ccccc2)c2ccccc2)cc1` the GI50 was 5.47 µM and 4.78 µM and the TGI was 11.9 µM and 19.2 µM.
With `CCN1CCC(O)(C(C(=O)O)c2ccccc2)CC1` (stereo not given) the TGI was over 100 µM.
In the case of `CC1=CC(=Nc2ccc(N(CCCl)CCCl)cc2)C=C(C)C1=O`, the GI50 is reported as 0.409 µM and the TGI is reported as 2.85 µM.
`CN(C)S(=O)(=O)Nc1nnc(S(N)(=O)=O)s1` showed a TGI of over 100 µM.

What follows are molecules tested on MCF7 breast (assay: NCI-60 cell line screen, 48 h).
With `OCc1c[nH]c2ccccc12` the GI50 was 29.4 µM and the TGI was 95.4 µM.
With `CCN(CC)CCOc1ccc(/C(=C(\Cl)c2ccccc2)c2ccccc2)cc1` the GI50 was 0.307 µM and 0.577 µM and the TGI was 7.55 µM and 2.99 µM.
For `CCN1CCC(O)(C(C(=O)O)c2ccccc2)CC1` (stereo not given), the TGI was over 100 µM.
For `CC1=CC(=Nc2ccc(N(CCCl)CCCl)cc2)C=C(C)C1=O`, the GI50 was 0.413 µM and the TGI was 3.98 µM.
Molecule `CN(C)S(=O)(=O)Nc1nnc(S(N)(=O)=O)s1` has a TGI of over 100 µM.
